Values of other authors in US10709751B2, “Chardonnay grape seed extract” (SHAKLEE CORPORATION, priority 2014, dated 2020).

What was measured:
[1] = tested on: neurons; details: laboratory studies
[2] = laboratory studies

| crossing of the blood-brain barrier [2] | Compound | growth and development of neurons [1] |
| --- | --- | --- |
| – | chlorogenic acids | stimulate growth and development of neurons |
| cross the blood-brain barrier | COc1cc(/C=C/c2ccc(O)cc2)cc(OC)c1 [pterostilbene] | – |
| cross the blood-brain barrier | Oc1cc(O)c2c(c1)O[C@H](c1ccc(O)c(O)c1)[C@H](O)C2 [epicatechin] | – |
